Data reported in BindingDB's records for doi:10.1074/jbc.M110.178376 (University of Pavia, 2011).
Structures can show the parent of a compound that is named as a salt.

Target: Beta-2-microglobulin (Homo sapiens, UniProt P61769)
Assay: Fluorescence Assay
Conditions: pH 7.4; 37 °C
Source text: Inhibition of wild type beta-m fibrillogenesis tetracycline congeners and was follow by thioflavin fluorescence assay.

| SMILES | IC50 |
| --- | --- |
| CN(C)[C@H]1C(=O)C(C(N)=O)C(=O)[C@@]2(O)C(=O)C3C(=O)c4c(O)cccc4[C@@](C)(O)C3C(O)C12 (stereo partly drawn) [4-epi-oxytetracycline] | 49 µM |
| CN(C)[C@@H]1C(=O)C(C(N)=O)C(=O)[C@@]2(O)C(=O)C3C(=O)c4c(O)cccc4[C@@](C)(O)[C@H]3[C@H](O)[C@@H]12 (stereo partly drawn) [(2E,4S,4aR,5S,5aR,6S,12aS)-2-[azanyl(oxidanyl)methylidene]-4-(dimethylamino)-6-methyl-5,6,10,11,12a-pentakis(oxidanyl)-4,4a,5,5a-tetrahydrotetracene-1,3,12-trione] | 63 µM |
| CN(C)[C@@H]1C(=O)C(C(=O)NCN2CCCC2)C(=O)[C@@]2(O)C(=O)C3C(=O)c4c(O)cccc4[C@@](C)(O)[C@H]3C[C@@H]12 (some centres not stated) [Rolitetracycline] | 136 µM |

The remaining compounds from weak to strong by IC50, led by results:

| IC50 | SMILES |
| --- | --- |
| 136 µM | Cc1c2c(c(O)c3c(O)ccc(Cl)c13)C(=O)[C@]1(O)C(=O)C(C(N)=O)C(=O)[C@@H](N(C)C)[C@@H]1C2 (some centres not stated) [Anhydrochlortetracycline] |
| 98 µM | C=C1c2c(Cl)ccc(O)c2C(=O)C2C(=O)[C@]3(O)C(=O)C(C(N)=O)C(=O)[C@@H](N(C)C)[C@@H]3[C@@H](O)[C@H]12 (some centres not stated) [Meclocycline] |
| 69 µM | C=C1c2cccc(O)c2C(=O)C2C(=O)[C@]3(O)C(=O)C(C(N)=O)C(=O)[C@@H](N(C)C)[C@@H]3[C@@H](O)[C@H]12 (stereo partly drawn) [(4S,4aR,5S,5aS,12aS)-4-(dimethylamino)-5,10,12a-trihydroxy-1,3,11,12-tetraketo-6-methylene-4a,5,5a,11a-tetrahydro-4H-tetracene-2-carboxamide;hydrochloride] |
| 47 µM | C[C@H]1c2cccc(O)c2C(=O)C2C(=O)[C@]3(O)C(=O)C(C(N)=O)C(=O)[C@@H](N(C)C)[C@@H]3[C@@H](O)[C@@H]21 (some centres not stated) |
